Assay results taken from patent US6008019A, “Plasminogen activator from saliva of the vampire bat” (Schering Aktiengesellschaft, priority 1989, dated 1999).
Read-outs that look alike come from different tables or passages of the source. Where a SMILES comes first, the peptide text is derived from it. [ ]: non-standard residue; d: D form. The star is where a group is joined. pNA = O=[N+]([O-])c1ccc(N*)cc1; pGlu = O=C1CC[C@@H](C(=O)O)N1

Legend:
[1] = target: T1, t-PA (tissue-type plasminogen activator) (Homo sapiens, UniProt P00750); details: literature value (Friedberger 1982), read-out: Km (value in parentheses, from the literature); cited from earlier work
[2] = target: T1, t-PA (tissue-type plasminogen activator); test: Km determination of amidolytic chromogenic substrates with t-PA; assay type: biochemical; details: 3 units per hole, 100 mM Tris pH 8.0/100 mM NaCl/0.01% Tween 80, 37° C., Lineweaver-Burk plot
Protocol: (§1) In a 96-hole plate, respectively 90 μl of 100 mM Tris pH 8.0/100 mM NaCl/0.01% "Tween" 80 and 50 μl of the corresponding chromogenic substrate (all from Kabi Vitrum, Stockholm, Sweden) in the final concentrations of 0.03/0.06/0.1/0.3/0.6 and 1 mM are incubated with 10 μl (3 units per hole) of the corresponding plasminogen activator at 37° C., and the thus-released p-nitroaniline is determined photometrically at 405 nm at various points in time between 0-7 hours. The resultant data are evaluated with the aid of a Lineweaver-Burk plot, and the Km value is determined (Segel, I. H., Enzyme Kinetics, John Wiley and Sons, New York). The following chromogenic substrates were utilized:

Urokinase [3] = target: T2, Urokinase (Homo sapiens, UniProt P00749); test: Km determination of amidolytic chromogenic substrates with urokinase; assay type: biochemical; details: 3 units per hole, 100 mM Tris pH 8.0/100 mM NaCl/0.01% Tween 80, 37° C., Lineweaver-Burk plot
Protocol: as §1

Urokinase [4] = target: T2, Urokinase; details: literature value (Friedberger 1982), read-out: Km (value in parentheses, from the literature); cited from earlier work

T1 sequence (P00750 36-562): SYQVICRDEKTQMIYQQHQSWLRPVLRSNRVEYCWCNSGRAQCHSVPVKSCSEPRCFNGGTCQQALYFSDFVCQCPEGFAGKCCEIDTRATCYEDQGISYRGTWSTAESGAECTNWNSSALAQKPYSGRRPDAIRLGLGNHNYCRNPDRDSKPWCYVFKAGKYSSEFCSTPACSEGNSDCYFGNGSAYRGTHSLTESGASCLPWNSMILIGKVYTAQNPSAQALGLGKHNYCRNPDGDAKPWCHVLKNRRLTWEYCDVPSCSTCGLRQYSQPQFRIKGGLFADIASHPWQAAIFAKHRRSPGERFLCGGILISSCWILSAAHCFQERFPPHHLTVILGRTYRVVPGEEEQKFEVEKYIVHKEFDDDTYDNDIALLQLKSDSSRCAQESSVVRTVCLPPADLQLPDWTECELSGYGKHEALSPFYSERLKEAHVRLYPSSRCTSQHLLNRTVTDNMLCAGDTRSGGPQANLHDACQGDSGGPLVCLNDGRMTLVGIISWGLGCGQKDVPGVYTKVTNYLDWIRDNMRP

Km [2] [µM]	Km (Urokinase [3]; read-out: Km) [µM]	SMILES	Km [1] [µM]	Km (Urokinase [3]) [µM]	Km (Urokinase [4]) [µM]
700	400	CC[C@@H](C)[C@@H](N)C(=O)N1CCC[C@H]1C(=O)N[C@@H](CCCNC(=N)N)C(=O)Nc1ccc([N+](=O)[O-])cc1 [S-2288, H-D-Ile-Pro-Arg-pNA] (H-[dI]-Pro-Arg-pNA)	1000	–	–
–	–	N=C(N)NCCC[C@H](NC(=O)CNC(=O)[C@@H]1CCC(=O)N1)C(=O)Nc1ccc([N+](=O)[O-])cc1 [S-2444, <Glu-Gly-Arg-pNA] ([pGlu]-Gly-Arg-pNA)	–	100	90
